{"source": "patent US20160082105A1", "about": "“Antibody Buffering of a Ligand in Vivo” (ARROWSMITH TECHNOLOGIES CORPORATION, priority 2004, published 2016)", "key": {"[1]": {"excerpt": "Male Sprague-Dawley rats (300 g) were obtained from Zivic Laboratories, Inc. (Zelienople, Pa.). Each rat underwent surgery to place a cannula in the right lateral ventricle for injections and a second cannula in the cisterna magna for cerebral spinal fluid (CSF) sampling. Briefly, the rat was anesthetized with 2.5% isoflurane and fixed in a stereotaxic device. Normal body temperature was maintained through a heating pad. A linear midline incision exposed the frontal, parietal, and occipital bones. The lateral ventricle was located using the coordinates (1.8 mm posterior, 3.8 mm lateral, and 4 mm ventral from bregma) obtained from a stereotaxic atlas of the rat (Paxinos et al. The Rat Brain in Stereotaxic Coordinates (Academic Press 1998)). A hole was drilled through the skull, a cannula was inserted, and it was fixed to the skull using VetBond (3M, Minneapolis, Minn.) and dental cement. […] The cannula was inserted to a depth of 2 mm below the bottom of the skull and fixed with VetBond and dental cement. Screw-capped cannula dummy wires were inserted into the cannula guides to maintain a closed system. Rats were allowed to recover for at least 24 hours before ventricular injection.\nFor experiments for which injections and withdrawals of CSF were done via the same site in the cisterna magna (CM), male Sprague-Dawley rats (250 g) were obtained from Charles River Laboratories (Wilmington, Mass.). […] Rats were allowed to rest no more than three days after arrival prior to experimentation to reduce the risk of cannula blockage.\n(§1) Samples were prepared for injection: 104 pmol anti-Ox antibody and 52 pmol Ox; 104 pmol of D1.3 control antibody and 52 pmol Ox; and 52 pmol Ox alone. Each sample was diluted to 10 μl with sterile PBS. The samples were warmed to 37° C., and then infused over 1 minute through the intraventricular or cisternal cannula in Sprague-Dawley rats. The end of the infusion was designated as time zero (0). At various timepoints, 10 μl of CSF was withdrawn. For one set of rats, the 10 μl CSF was counted directly by placing it into 5 ml of Scintiverse II and counting in a Beckman LS6500 Scintillation Counter. For another set of rats, the 10 μl CSF was diluted into 100 μl ice cold PBS and used in bound vs. free Ox experiments described below.\n(§2) Samples of NQ11/7.12 and Ox were prepared and infused into the cisternal cannula of Sprague-Dawley rats from Charles River Laboratories as described above for the antibody buffering protocol. Ten μl of CSF was taken from the cisterna magna at time 1, 10, 20, 30, 60, 90 and 120 minutes. The 10 μl CSF samples were either counted directly or diluted into 100 μl ice cold PBS and loaded onto a 187.1 column to separate bound and free Ox. At 24 hours and at 48 hours following the first administration, 52 pmol Ox in 10 μl total volume (diluted with sterile PBS) was infused over 1 minute through the cisterna magna cannula. Timepoints were again taken and analyzed as above.\nTo determine the pharmacokinetic behavior of Ox in the CSF, tritiated Ox was infused into a rat through its intraventricular cannula, and elimination of Ox was followed through CSF sampling from the cisterna magna (CM) cannula. Sampling was done from the cisterna magna because it is the largest CSF compartment. Its location between the cerebellum and the upper brain stem and its large size make it relatively easy to access CSF for sampling and scintillation counting (van den Berg et al., J. Neurosci. Methods 116:99-107 (2002))."}, "[2]": {"procedure": "as §1\nThe rat anti-mouse kappa antibody 187.1 (obtained from American Type Culture Collection (ATCC), Manassas, Va.) (Yelton et al., Hybridoma 1:5-11 (1981)) was isolated from spent culture medium and purified by passage over a Protein A-Sepharose affinity column. Ten grams of CNBr-activated Sepharose 4 Fast Flow (Amersham Biosciences) were washed and coupled with 187.1 according to manufacturer's protocol. Two mg 187.1 per 10 g of swelled resin were used.\nDuring the antibody buffering experiments, the CSF plus ice cold PBS sample were loaded onto the 187.1 column immediately after the dilution. Application to the column of 3 ml of PBS in 0.5 ml increments was followed by application of 3 ml of 0.2 M glycine (pH 2.5) in 0.5 ml increments. All the PBS fractions and all the glycine fractions were collected separately for each timepoint and dried down in the SpeedVac. The residue was resuspended in 150 μl PBS and then transferred to a scintillation vial with 5 ml Scintiverse II for counting.\nas §2\nThe principle of chemical equilibrium predicts that the Ox in the CSF should partition between free and antibody-bound forms, and that the free pool should be constantly replenished, staying at a concentration near the antibody's Kd. The Ox in the CSF samples from another set of rats was separated into bound and free forms by passage over an affinity column. […] Antibody-Ox complexes bound to the immobilized rat anti-mouse kappa antibody while free Ox eluted from the column with the PBS wash (free Ox fraction).", "remark": "listed apart in the source"}, "[3]": {"settings": "Ox alone re-administered at 24 hours and 48 hours after a single NQ11/7.12 + Ox cisternal infusion"}, "[4]": {"settings": "Ox administered alone or with D1.3"}}, "note": "Like-named read-outs stand apart in the source and are kept apart here."}
{"compound": "O=C(O)CCCNC=C1N=C(c2ccccc2)OC1=O", "note": "[Ox, 2-phenyl-oxazol-5-one-γ-amino butyrate]", "values": [{"measurement": "Ox elimination half-life from the cisterna magna", "setting": "[1]; Ox alone (no NQ11/7.12), intraventricular infusion, cisternal CSF sampling", "result": 1.2, "unit": "min"}, {"measurement": "total Ox pharmacokinetic lifetime in CSF, long term buffering", "setting": "[1]; [3]", "result": "kinetic profile between the profile observed when Ox was initially administered with NQ11/7.12 and the profile of Ox when administered with D1.3"}, {"measurement": "Ox elimination half-life from CSF", "setting": "[1]; Ox co-administered with control antibody D1.3, cisternal infusion", "result": 1.0, "unit": "min"}, {"measurement": "Ox elimination half-life from CSF", "setting": "[1]; Ox co-administered with twice the molar amount of NQ11/7.12, cisternal infusion", "result": 10, "unit": "min"}, {"measurement": "time of peak Ox concentration in the cisterna magna", "setting": "[1]; Ox with twice the molar amount of NQ11/7.12, intraventricular infusion", "result": "around 5 minutes"}, {"measurement": "peak Ox concentration in the cisterna magna", "setting": "[1]; Ox without antibody buffer, intraventricular infusion", "result": "never attained a peak concentration"}, {"measurement": "increase in Ox half-life in CSF, NQ11/7.12 vs D1.3", "setting": "[1]; cisternal infusion", "result": "ten-fold"}, {"measurement": "decrease of free Ox concentration in CSF in an hour", "setting": "[2]; [4]", "result": 500, "unit": "fold"}, {"measurement": "free Ox elimination half-life in CSF", "setting": "[2]; [4]", "result": 0.61, "unit": "min"}, {"measurement": "initial free Ox concentration in CSF", "setting": "[2]; [4]", "result": 1.4, "unit": "mM"}, {"measurement": "decrease of free Ox concentration in CSF over time", "setting": "[2]; Ox administered with NQ11/7.12", "result": "less than 10 fold"}, {"measurement": "free Ox concentration in CSF after the decrease", "setting": "[2]; Ox administered with NQ11/7.12", "result": "approximately 6 nM"}, {"measurement": "free Ox elimination half-life in CSF", "setting": "[2]; Ox administered with NQ11/7.12", "result": 1.55, "unit": "min"}, {"measurement": "initial free Ox concentration in CSF", "setting": "[2]; Ox administered with NQ11/7.12", "result": "6e-05", "unit": "mM"}, {"measurement": "free Ox elimination in CSF, long term buffering", "setting": "[2]; [3]", "result": "slower elimination profile than Ox administered with D1.3"}]}
